Source: ChEMBL document CHEMBL2169826, “Pharmacokinetic benefits of 3,4-dimethoxy substitution of a phenyl ring and design of isosteres yielding orally available cathepsin K inhibitors” (J Med Chem, 2012)
pIC50: −log10 of the molar value.

What was measured:
[1] = Inhibition of osteoclastogenesis in human bone marrow-derived stem cells assessed as reduction of pit formation by measuring TRACP5b activity after 7 days by bone TRAP assay; format: functional; conditions: 168 h
[2] = Volume of distribution at steady state in Alderley Park Han Wistar rat at 2 mg/kg, iv and 2 mg/kg, po; format: ADME, organism-based; conditions: in vivo, read-out: Vdss
[3] = Oral bioavailability in Alderley Park Han Wistar rat at 2 mg/kg; format: ADME, organism-based; conditions: in vivo
[4] = Volume of distribution at steady state in Beagle dog at 1 mg/kg, iv and 1 mg/kg, po; format: ADME, organism-based, Canis lupus familiaris; conditions: in vivo, read-out: Vdss
[5] = Oral bioavailability in Beagle dog at 1 mg/kg; format: ADME, organism-based, Canis lupus familiaris; conditions: in vivo
[6] = Percentage unbound in rat plasma; format: ADME, cell-free
[7] = Percentage unbound in dog plasma; format: ADME, cell-free, Canis lupus familiaris
[8] = Percentage unbound in human plasma; format: ADME, cell-free
[9] = Aqueous solubility of the compound in at pH 7.4; conditions: buffer
Cathepsin B = Cathepsin B (Homo sapiens, UniProt P07858); experiment: Inhibition of human recombinant cathepsin-B using Z-Arg-Arg-AMC as substrate preincubated for 15 mins measured after 1 hr by QFRET assay
Cathepsin K = molecular target: T1, Cathepsin K (Homo sapiens, UniProt P43235); experiment: Inhibition of human recombinant cathepsin-k using Z-Phe-Arg-AMC as substrate preincubated for 15 mins measured after 1 hr by QFRET assay
T1 sequence (P43235 whole entry): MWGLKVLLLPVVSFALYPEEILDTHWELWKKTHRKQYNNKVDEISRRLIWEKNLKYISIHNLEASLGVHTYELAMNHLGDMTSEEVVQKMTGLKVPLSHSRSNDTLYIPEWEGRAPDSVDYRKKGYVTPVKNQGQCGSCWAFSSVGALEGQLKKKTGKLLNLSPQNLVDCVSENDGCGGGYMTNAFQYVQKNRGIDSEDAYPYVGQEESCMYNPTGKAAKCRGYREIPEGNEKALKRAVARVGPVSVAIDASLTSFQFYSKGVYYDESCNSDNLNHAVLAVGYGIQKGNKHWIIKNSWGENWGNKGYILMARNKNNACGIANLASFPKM

Procathepsin L = Procathepsin L (Homo sapiens, UniProt P07711); experiment: Inhibition of human recombinant cathepsin-L using Z-Phe-Arg-AMC as substrate preincubated for 15 mins measured after 1 hr by QFRET assay
Cathepsin S = Cathepsin S (Homo sapiens, UniProt P25774); experiment: Inhibition of human recombinant cathepsin-S using Z-Val-Val-Arg-AMC as substrate preincubated for 15 mins measured after 1 hr by QFRET assay
physchem = conditions: buffer, pH 7.4
[10] = Metabolic stability of the compound in rat liver microsomes assessed as compound turnover after 120 mins
[11] = Clearance in rat; format: ADME, organism-based; conditions: in vivo
[12] = Volume of distribution at steady state in rat; format: ADME, organism-based; conditions: in vivo, read-out: Vdss
[13] = Oral bioavailability in rat; format: ADME, organism-based; conditions: in vivo
in vivo [14] = conditions: Alderley Park Han Wistar, rat, plasma, iv, 2 mg/kg
Homo sapiens = organism: Homo sapiens; experiment: Selectivity ratio of IC50 for human recombinant cathepsin-K to IC50 for human recombinant cathepsin-B
[15] = Metabolic stability of the compound in human liver microsomes assessed as compound turnover after 120 mins
in vivo [16] = conditions: beagle, dog, plasma, iv, 1 mg/kg

Cathepsin S, sequence (P25774 whole entry): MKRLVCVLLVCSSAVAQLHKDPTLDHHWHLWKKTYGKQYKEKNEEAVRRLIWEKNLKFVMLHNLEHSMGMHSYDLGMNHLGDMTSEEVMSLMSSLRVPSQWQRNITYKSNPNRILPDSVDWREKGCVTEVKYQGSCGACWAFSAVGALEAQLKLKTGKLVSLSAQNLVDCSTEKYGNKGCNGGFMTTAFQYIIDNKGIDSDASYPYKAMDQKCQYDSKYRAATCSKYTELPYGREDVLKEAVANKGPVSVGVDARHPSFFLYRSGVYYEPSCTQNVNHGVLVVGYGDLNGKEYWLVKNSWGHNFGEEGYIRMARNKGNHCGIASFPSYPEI
Procathepsin L, sequence (P07711 whole entry): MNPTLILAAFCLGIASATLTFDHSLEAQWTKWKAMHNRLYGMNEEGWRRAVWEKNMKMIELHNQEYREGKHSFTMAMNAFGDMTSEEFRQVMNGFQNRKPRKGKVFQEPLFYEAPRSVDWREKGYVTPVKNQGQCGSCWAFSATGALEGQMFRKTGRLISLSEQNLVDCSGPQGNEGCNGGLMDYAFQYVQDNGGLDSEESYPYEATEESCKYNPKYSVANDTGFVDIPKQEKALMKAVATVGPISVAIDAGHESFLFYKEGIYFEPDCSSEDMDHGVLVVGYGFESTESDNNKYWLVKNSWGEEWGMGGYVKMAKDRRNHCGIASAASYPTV

Row | Vd [2] [L/kg] | bioavailability [3] [%] | bioavailability [5] [%] | fraction unbound [6] | fraction unbound [8] | solubility [9] [µM] | pIC50 (Cathepsin B) | pIC50 (Cathepsin K) | pIC50 (Procathepsin L) | pIC50 (Cathepsin S) | logD (physchem) | microsomal CLint at 2 h [10] [µL/min/mg] | clearance (in vivo [14]) [mL/min/kg] | SMILES | pIC50 [1] | also measured
1 | 1.2 | 46 | 71 | 0.53 | 0.39 | > 2400 | 5.73 | 8.40 | < 5.00 | 5.84 | 1.9 | – | – | COc1ccc(N2CCN(C(=O)[C@@H]3CCCC[C@H]3C(=O)NC3(C#N)CC3)[C@H](C)C2)cc1OC | 7.40 | Vd [4]: 0.8 L/kg; fraction unbound [7]: 0.39
2 | 1.3 | 0 | – | > 0.53 | > 0.5 | – | – | – | – | – | – | 35 | 36 | N#CC1(NC(=O)[C@@H]2CCCC[C@H]2C(=O)N2CCN(c3ccc(F)cc3)CC2)CC1 | – | clearance [11]: 36 mL/min/kg; Vd [12]: 1.3 L/kg; bioavailability [13]: 0%
3 | – | 41 | 79 | – | 0.45 | > 2500 | 5.51 | 8.05 | < 5.00 | 5.64 | 1.4 | < 7.4 | 29 | COc1ccc(N2CCN(C(=O)[C@@H]3CCCC[C@H]3C(=O)NC3(C#N)CC3)CC2)cc1OC | 6.90 | Ratio IC50 (Homo sapiens): 340; microsomal CLint at 2 h [15]: 2.3 µL/min/mg; clearance (in vivo [16]): 12 mL/min/kg
